From US8999964B2, “TGR5 modulators and methods of use thereof” (Intercept Pharmaceuticals, Inc., priority 2008, dated 2015)
Where a name gives a salt, the structure may show the parent alone.

How the values were obtained:
hTGR5 [1] = biological target: T1, hTGR5 (Homo sapiens, UniProt Q8TDU6); assay: cell-based; parameters: Human intestinal cell lines (NCI-H716) were plated in 96-well plates; endogenous in cells; conditions: Table 1; CRE-Luc reporter, HEK293T; read-out: Transactivation Assay hTGR5 EC50
T1 sequence (Q8TDU6 1-330): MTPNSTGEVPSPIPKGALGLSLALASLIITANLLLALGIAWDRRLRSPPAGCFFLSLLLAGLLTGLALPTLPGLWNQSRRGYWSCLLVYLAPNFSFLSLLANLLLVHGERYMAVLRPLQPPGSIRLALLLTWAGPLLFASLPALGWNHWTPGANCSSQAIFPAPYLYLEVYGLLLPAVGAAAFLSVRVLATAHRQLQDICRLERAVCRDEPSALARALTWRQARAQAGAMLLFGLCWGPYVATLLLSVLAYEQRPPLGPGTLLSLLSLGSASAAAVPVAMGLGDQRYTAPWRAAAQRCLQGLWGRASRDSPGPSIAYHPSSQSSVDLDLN
Method: HEPG2 and HEK293T cells were cultured in E-MEM and DMEM respectively, either supplemented with 1% penicillin/streptomycin, 1% L-glutamine and 10% fetal bovine serum. […] Cells were grown at 37° C. in 5% CO2. All the transfections were made using 5:2 Fugene HD Trasfection reagent (μl) to DNA (μg) respectively (Roche). […] Transient transfections were performed using 100 ng of reporter vector pGL4.29[luc2P/CRE/Hygro] […] The pGEM vector was added to normalize the amounts of DNA transfected in each assay (2 μg). […] The cells were then lysed by adding 75 μl of Dual-Glo Luciferase Reagent (Promega) to 75 μl of medium containing cells/well. Renilla luciferase activity was measured by adding volume:volume of Dual-Glo Stop & Glo reagent and original culture medium. Luciferase activities were expressed as ratio between luciferase unit and renilla luciferase unit. Each data point is the average of triplicate assays. Each experiment was repeated at least three times.
(§1) After subtracting the average value of the basal (vehicle-treated) condition, values were applied to EC50 and/or efficacy determinations. Calculation of average EC50 and comparison of the EC50 between different compounds were done after transformation to logarithms.

[2] = Bile fistula rat, femoral (iv) infusion: bile flow, biliary secretion, metabolism; conditions: for Conc. in bile: rat bile; for Secretion (biliary): rat
hTGR5 [3] = biological target: T1, hTGR5; assay: FRET-cAMP on TGR5 overexpressing Hek293 cells; type: cell-based; parameters: Human intestinal cell lines (NCI-H716) were plated in 96-well plates; endogenous in cells
hTGR5 [4] = biological target: T1, hTGR5; assay: FRET assay (intracellular cAMP) in NCI-H716 cells; type: cell-based; parameters: Human intestinal cell lines (NCI-H716) were plated in 96-well plates; endogenous in cells; host or cells: NCI-H716
Method: The receptor binding assay was performed by measuring the level of cyclic AMP (cAMP) using FRET assay. Human intestinal cell lines (NCI-H716) were plated in 96-well plates coated with 0.75 mg/ml Matrigel (BD Biosciences) according to manufacturer's instructions just prior to use, at a density of 12×10^3 cells/well in DMEM supplemented with 10% (v/v) FBS, 100 units/ml penicillin and 100 μg/ml streptomycin sulfate, and cultured for 24 h, which allowed cell adhesion to the bottom of the plate. The cells were washed twice with PBS and medium was exchanged for cAMP assay medium [OPTIMEM containing 0.1% (w/v) BSA and 1 mM 3-isobutyl-1-methylxanthine (IBMX)]. […] The level of intracellular cAMP was determined with Lance kit (PerkinElmer). Litocholic acid was used as control ligand. Z′ factor was used to validate assays. Non linear regression curves, without constraints, were performed by using four parameter equation and GraphPad Prism Software (GraphPad Inc.), to obtain the EC50 values.
as §1

PPARδ = biological target: T2, PPARδ (Homo sapiens, UniProt Q03181); assay: PPARδ activation, NR selectivity assay; conditions: Table 6
T2 sequence (Q03181 211-439 limits assumed): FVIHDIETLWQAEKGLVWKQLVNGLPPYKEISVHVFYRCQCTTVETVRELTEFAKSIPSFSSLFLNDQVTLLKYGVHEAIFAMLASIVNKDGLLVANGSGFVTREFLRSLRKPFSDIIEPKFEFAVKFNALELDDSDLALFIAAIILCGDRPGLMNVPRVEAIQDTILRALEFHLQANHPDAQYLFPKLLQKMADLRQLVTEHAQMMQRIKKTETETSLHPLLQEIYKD

[5] = Critical micellar concentration by surface tension measurements; type: physicochemical
Method: The critical micellar concentration (CMC) was determined by surface tension (ST) measurements using a maximum bubble-pressure method which give surface tension values slightly affected by potential impurities […] static methods. […] The surface tension values were plotted against the logarithm of the bile salt concentration; the regression lines corresponding to the two parts of the curve (monomeric and micellar phases) were calculated using the method of least squares, and the intersection of the lines was taken as the CMC value. From the ST vs concentration curves the value of the surface tension at the CMC (equilibrium between monomers and multimers species) was also calculated giving information about the detergency power which is related to the size of the micelles with associate surface tension lowering capacity. The CMC was evaluated by surface tension measurements in non equilibrium conditions i.e. in conditions that impurities slightly affect the surface tension results (FIG. 6). […] The presence of a hydroxyl group in the C-16 beta position reduces the hydrophobic area responsible for back to back interaction, which is to form micelles and therefore, the micelles are small and poorly detergent. This property confers to the molecule a low toxicity when accumulated in a given biological fluid or organ.

in vitro = conditions: human
[6] = Bile fistula rat, duodenal (id) infusion: bile flow, biliary secretion, metabolism; conditions: for Intestinal absorption: biliary secretion id versus iv; for Conc. in bile: rat bile; for Secretion (biliary): rat
LXRα = biological target: T3, LXRα (Homo sapiens, UniProt Q13133); assay: LXR coactivator recruitment (Alphascreen); type: biochemical; conditions: Table 6
T3 sequence (Q13133 1-447): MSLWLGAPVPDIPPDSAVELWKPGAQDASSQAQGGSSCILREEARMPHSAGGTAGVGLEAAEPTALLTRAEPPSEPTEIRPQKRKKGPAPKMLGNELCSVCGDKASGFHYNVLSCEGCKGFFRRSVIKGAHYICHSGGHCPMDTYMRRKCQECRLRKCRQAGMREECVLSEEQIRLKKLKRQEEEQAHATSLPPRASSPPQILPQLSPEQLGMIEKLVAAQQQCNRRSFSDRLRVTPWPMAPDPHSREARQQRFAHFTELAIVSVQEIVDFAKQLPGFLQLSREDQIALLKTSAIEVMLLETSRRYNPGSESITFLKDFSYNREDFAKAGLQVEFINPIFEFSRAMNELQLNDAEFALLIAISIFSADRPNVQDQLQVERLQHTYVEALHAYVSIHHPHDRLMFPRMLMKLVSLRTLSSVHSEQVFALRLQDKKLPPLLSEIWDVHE

[7] = bile fistula rat, mass spectrometry
[8] = femoral infusion 1 μmol/kg/min 1 h, 75 min
[9] = duodenal infusion 1 μmol/kg/min 1 h, 90 min

CC[C@H]1[C@@H](O)[C@@H]2[C@H](CC[C@]3(C)[C@@H]([C@H](C)CCC(=O)O)[C@@H](O)C[C@@H]23)[C@@]2(C)CC[C@@H](O)C[C@@H]12 [Compound 10, 3α,7α,16β-trihydroxy-6α-ethyl-5β-cholan-24-oic acid sodium salt]
EC50 (hTGR5 [1]): 0.04 µM
Hepatic metabolism, species in bile after iv administration [2, 7]: secreted in bile as such and mainly conjugated with taurine
Conc. in bile [2, 8]: 40 µM
Secretion (biliary) [2, 8]: 0.002 µmol/kg/min
Biliary secretion after iv infusion ([2]; femoral infusion 1 μmol/kg/min, bile fistula rat): not efficient
Conc. in bile ([2]; femoral infusion, 90 min): 2300 µM
Conc. in bile ([2]; femoral infusion, 120 min): 900 µM
Conc. in bile ([2]; femoral infusion, 150 min): 60 µM
Conc. in bile ([2]; femoral infusion, 180 min): 40 µM
Conc. in bile ([2]; femoral infusion, 210 min): 20 µM
Secretion (biliary) ([2]; femoral infusion, 90 min): 0.127 µmol/kg/min
Secretion (biliary) ([2]; femoral infusion, 120 min): 0.065 µmol/kg/min
Secretion (biliary) ([2]; femoral infusion, 150 min): 0.004 µmol/kg/min
Secretion (biliary) ([2]; femoral infusion, 180 min): 0.003 µmol/kg/min
Secretion (biliary) ([2]; femoral infusion, 210 min): 0.001 µmol/kg/min
EC50 (hTGR5 [3]): 0.2 µM
EC50 (hTGR5 [4]; FRET (cAMP) NCI-H716 hTGR5 EC50, Table 1, NCI-H716 cells): 0.65 µM
EC50 (hTGR5 [4]; TGR5 Activation EC50, Table 6, cAMP level on NCI-H716): 0.6 µM
PPARδ Activation EC50 (PPARδ): No activity
Detergency (CMC and surface tension lowering capacity) ([5]; NaCl […]): moderate detergent
CMC […] Na+ ([5]; […] NaCl water solution): 5.9 mM
STCMC: Surface Tension at CMC ([5]; […] NaCl water solution): 52.4 Dyne/cm
EC50 at 4 h (in vitro): > 1000 µM
Metabolism, species in bile after id administration [6, 7]: recovered as such and mainly metabolised to form the taurine conjugates
Intestinal absorption ([6]; bile fistula rat, listed as compound 10, sodium salt): poor intestinal absorption
Intestinal absorption ([6]; bile fistula rat, sodium salt): efficient
Conc. in bile [6, 9]: 10 µM
Secretion (biliary) [6, 9]: 0.0004 µmol/kg/min
Choleretic effect (bile flow) ([6]; duodenal infusion 1 μmol/kg/min, 1 hour, bile fistula rat): not choleretic
Conc. in bile ([6]; duodenal infusion, 120 min): 70 µM
Conc. in bile ([6]; duodenal infusion, 150 min): 390 µM
Conc. in bile ([6]; duodenal infusion, 180 min): 140 µM
Conc. in bile ([6]; duodenal infusion, 210 min): 90 µM
Conc. in bile ([6]; duodenal infusion, 240 min): 30 µM
Conc. in bile ([6]; duodenal infusion, 270 min): 20 µM
Conc. in bile ([6]; duodenal infusion, 300 min): 20 µM
Secretion (biliary) ([6]; duodenal infusion, 120 min): 0.003 µmol/kg/min
Secretion (biliary) ([6]; duodenal infusion, 150 min): 0.019 µmol/kg/min
Secretion (biliary) ([6]; duodenal infusion, 180 min): 0.003 µmol/kg/min
Secretion (biliary) ([6]; duodenal infusion, 210 min): 0.004 µmol/kg/min
Secretion (biliary) ([6]; duodenal infusion, 240 min): 0.001 µmol/kg/min
Secretion (biliary) ([6]; duodenal infusion, 270 min): 0.001 µmol/kg/min
Secretion (biliary) ([6]; duodenal infusion, 300 min): 0.001 µmol/kg/min
LXRα Activation EC50 (LXRα): No activity
